According to patent US5798375A, “Treatment of arteriosclerosis and xanthoma” (Sankyo Company, Limited, priority 1995, dated 1998):

Test system: WHHL rabbits
Assay: Example 2: aortic cholesterol content
Type: in vivo, Male WHHL rabbits
Description: Each test compound was administered for eight months to the rabbits in the form of an aqueous suspension (0.5% carboxymethylcellulose added). In the control group, a 0.5% carboxymethylcellulose solution only was administered.
The aortic cholesterol content was measured The tunica media and tunica intima at the aortic arch and at the thoracic and abdominal aorta were peeled away with tweezers and cut into pieces. The pieces were extracted with a 2:1 by volume mixture of chloroform and methanol.
The chloroform phase was separated and evaporated to dryness and the residue was dissolved in isopropanol. The total cholesterol and the free cholesterol were measured by a conventional enzymatic method.
Data are expressed by the mean plus or minus standard error (mg/g tissue). The values in parentheses indicate the percentage against the control. A significant difference against the control group was observed by the unpaired student t-test: […]

For `CC[C@H](C)C(=O)O[C@H]1C[C@H](O)C=C2C=C[C@H](C)[C@H](CC[C@@H](O)C[C@@H](O)CC(=O)O)[C@H]21` [Pravastatin, sodium 1,2,6,7,8,8a-hexahydro-6,8-tetrahydroxy-2-methyl-1-naphthaleneheptanoate], the “Cholesterol level of Thoracic and Abdominal Aorta, Esterified” value (mean ± standard error, control 5.3 ± 1.7) was 4.7 ± 0.7 mg/g tissue, the “Cholesterol Content of Aortic Arch, Esterified” value (mean ± standard error, control 6.5 ± 1.4, *p < 0.05) was 6.4 ± 1.1 mg/g tissue and the “Cholesterol level of Thoracic and Abdominal Aorta, Free” value (mean ± standard error, control 14.8 ± 2.3, *p < 0.05 vs control) was 12.5 ± 1.3 mg/g tissue. The “Cholesterol level of Thoracic and Abdominal Aorta, Total” value (mean ± standard error, control 20.1 ± 2.3, *p < 0.05, **p < 0.02 vs control) was 17.2 ± 1.6 mg/g tissue, the “Cholesterol Content of Aortic Arch, Free” value (mean ± standard error, control 20.6 ± 2.9) was 18.6 ± 4.4 mg/g tissue and the “Cholesterol Content of Aortic Arch, Total” value (mean ± standard error, control 27.1 ± 3.3) was 24.9 ± 5.2 mg/g tissue. The “Cholesterol Content of Aortic Arch, Esterified, percentage against the control” value (number in parentheses) was 98%, the “Cholesterol Content of Aortic Arch, Free, percentage against the control” value (number in parentheses) was 90% and the “Cholesterol Content of Aortic Arch, Total, percentage against the control” value (number in parentheses) was 92%. For the same compound, the “Cholesterol level of Thoracic and Abdominal Aorta, Esterified, percentage against the control” value (number in parentheses) was 89%, the “Cholesterol level of Thoracic and Abdominal Aorta, Free, percentage against the control” value (number in parentheses) was 84% and the “Cholesterol level of Thoracic and Abdominal Aorta, Total, percentage against the control” value (number in parentheses) was 86%.
